By ED50 is commonly meant the dose at which the effect has come halfway, by size or by number of responders. A higher ED50 goes with weaker potency. As usually defined, the pIC50 is the negative decadic logarithm of the IC50, by convention in mol/L. The low end stands for a high IC50, the high end for a low IC50. A word on the IC50: it is the midpoint of a concentration-inhibition curve. A high value points to weaker potency.

pIC50: −log10 of the molar value. A value given as a limit tells only on which side of the number the result lay.

For one test, the system named is Mus musculus. Briefly: In vivo inhibition of apomorphine-induced climbing response in mice. The format is functional.
Test [1] has as its target T1, 5-hydroxytryptamine receptor 1A (Rattus norvegicus, UniProt P19327).
T1 sequence (P19327 whole entry): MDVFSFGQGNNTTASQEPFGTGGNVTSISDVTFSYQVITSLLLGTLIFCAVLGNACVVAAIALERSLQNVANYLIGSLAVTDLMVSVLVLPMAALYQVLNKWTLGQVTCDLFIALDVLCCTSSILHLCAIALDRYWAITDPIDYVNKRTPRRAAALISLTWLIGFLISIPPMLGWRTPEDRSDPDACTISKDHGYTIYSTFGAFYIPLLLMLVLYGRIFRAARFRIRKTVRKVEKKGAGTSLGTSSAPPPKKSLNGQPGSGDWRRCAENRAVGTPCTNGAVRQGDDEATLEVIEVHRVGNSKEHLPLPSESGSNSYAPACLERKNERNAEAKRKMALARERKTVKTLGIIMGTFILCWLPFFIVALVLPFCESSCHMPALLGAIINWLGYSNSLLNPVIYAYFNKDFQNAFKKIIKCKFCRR
Kind of test: Inhibition of [3H]8-OH-DPAT binding at serotonin 5-hydroxytryptamine 1A receptor from rat hippocampus tissue. The format is tissue-based.

Test [2] has as its target Serotonin 2 (5-HT2) receptor (Rattus norvegicus, UniProt P30994+P08909+P14842). Briefly: Inhibition of [3H]ketanserin binding at 5-hydroxytryptamine 2 receptor from rat frontal cortex.

For `O=C1c2ccccc2C(=O)N1CCCCN1CCN(c2nsc3ccccc23)CC1`, the ED50 in the test on Mus musculus came to 1.1 mg/kg.

Compound `O=C1c2ccccc2CN1CCCCN1CCN(c2nsc3ccccc23)CC1` had an ED50 in the test with Mus musculus of 6.8 mg/kg.

In test [1], `O=C1c2ccccc2CN1CCCCCN1CCN(c2nsc3ccccc23)CC1` had a pIC50 of 8.57. The compound further yielded an ED50 in the test on Mus musculus of 20 mg/kg. This compound also registered an IC50 in test [2] of 2.2 nM.

The compound `O=C1c2ccccc2C(=O)N1CCCCCN1CCN(c2nsc3ccccc23)CC1` gave a pIC50 in test [1] of 8.70. In the test on Mus musculus, this compound gave an ED50 of 27 mg/kg. In addition, in test [2], the IC50 is 1.8 nM.

For the compound `O=C1c2ccccc2C(=O)N1C/C=C\CN1CCN(c2nsc3ccccc23)CC1`, the pIC50 in test [1] is 7.62. In the test on Mus musculus, the ED50 is over 25 mg/kg. For the same compound, in test [2], the IC50 came to 3.2 nM.

Turning to `O=C1c2ccccc2CN1CCOCCN1CCN(c2nsc3ccccc23)CC1`, the ED50 with Mus musculus is over 25 mg/kg. This compound came in with an IC50 in test [2] of 1.7 nM.

For `O=C1c2ccccc2C(=O)N1CCCN1CCN(c2nsc3ccccc23)CC1`, the pIC50 in test [1] is 7.89. In addition, in the test on Mus musculus, the ED50 is over 25 mg/kg. This compound had an IC50 in test [2] of 6 nM.

In the case of `O=C(CCCN1CCC(O)(c2ccc(Cl)cc2)CC1)c1ccc(F)cc1` [HALOPERIDOL], the ED50 in the test on Mus musculus was 2 mg/kg.

With `O=C1c2ccccc2C(=O)N1C/C=C/CN1CCN(c2nsc3ccccc23)CC1`, the negative logarithm of the IC50 (pIC50) in test [1] is 8.33. This compound also displayed a median effective dose (ED50) with Mus musculus of 12.7 mg/kg. In test [2], the IC50 was determined as 0.78 nM.

`O=C1c2ccccc2CN1CC#CCN1CCN(c2nsc3ccccc23)CC1`: the ED50 in the test with Mus musculus was over 25 mg/kg. Also, the half-inhibitory concentration (IC50) in test [2] came out at 18 nM.

In turn, `O=C1c2ccccc2CN1C/C=C/CN1CCN(c2nsc3ccccc23)CC1` came in with an ED50 in the test with Mus musculus of 17.6 mg/kg. Also, the IC50 in test [2] was 1.7 nM.

Take `O=C1c2ccccc2C(=O)N1CCN1CCN(c2nsc3ccccc23)CC1`: the pIC50 in test [1] is 7.27. For the same compound, the ED50 in the test on Mus musculus was over 25 mg/kg. In addition, the IC50 in test [2] is recorded as 30 nM.

With `O=C1c2ccccc2C(=O)N1CCOCCN1CCN(c2nsc3ccccc23)CC1`, the pIC50 in test [1] is 7.27. In the test on Mus musculus, this compound returned an ED50 of over 25 mg/kg. Besides, in test [2], the IC50 is 5.4 nM.

For the compound `O=C1c2ccccc2CN1C1CCC(N2CCN(c3nsc4ccccc34)CC2)CC1` (configuration not stated), the pIC50 in test [1] was 6.85. The compound further had an ED50 in the test on Mus musculus of 11.7 mg/kg. Besides, the IC50 in test [2] amounted to 120 nM.

With `O=C1c2ccccc2CN1C/C=C\CN1CCN(c2nsc3ccccc23)CC1`, in the test with Mus musculus, the ED50 is 13.9 mg/kg. In addition, in test [2], the IC50 is 5.5 nM.

Compound `O=C1c2ccccc2C(=O)N1CC1CC1CN1CCN(c2nsc3ccccc23)CC1` (configuration not stated) showed a pIC50 in test [1] of 7.72. The compound also displayed an ED50 with Mus musculus of 22.9 mg/kg. The compound also gave a half-maximal inhibitory concentration (IC50) in test [2] of 4 nM.

For the compound `O=C1c2ccccc2CN1CCCN1CCN(c2nsc3ccccc23)CC1`, in test [1], the pIC50 was 6.41. In the test on Mus musculus, this compound registered an ED50 of over 25 mg/kg. The same compound had an IC50 in test [2] of 13 nM.

On to `O=C1c2ccccc2CN1CCN1CCN(c2nsc3ccccc23)CC1`, for which, in test [1], the pIC50 is 7.40. In the test with Mus musculus, this compound gave an ED50 of over 25 mg/kg. The IC50 in test [2] is recorded as 9.8 nM.

In test [1], `O=C1c2ccccc2C(=O)N1CC#CCN1CCN(c2nsc3ccccc23)CC1` had a pIC50 of 6.38. In addition, the ED50 with Mus musculus is over 25 mg/kg. The compound also showed an IC50 in test [2] of 43 nM.

Source of the values: ChEMBL document CHEMBL1129281, “Effect of linking bridge modifications on the antipsychotic profile of some phthalimide and isoindolinone derivatives” (J Med Chem, 1996).
